Measured values from US10130095B2, “Fungicidal compositions of pyrazolecarboxylic acid alkoxyamides” (BASF AGRO B.V., priority 2014, dated 2018).

Key:
Botrytis cinerea = test: in vivo preventive test on Botrytis test (beans); conditions: evaluated 2 days after inoculation
Experimental: Solvent: 24.5 parts by weight of acetone • 24.5 parts by weight of dimethylacetamide Emulsifier: 1 part by weight of alkylaryl polyglycol ether To produce a suitable preparation of active compound, 1 part by weight of active compound is mixed with the stated amounts of solvent and emulsifier, and the concentrate is diluted with water to the desired concentration. To test for preventive activity, young plants are sprayed with the preparation of active compound. After the spray coating has dried on, 2 small pieces of agar covered with growth of Botrytis cinerea are placed on each leaf. The inoculated plants are placed in a darkened chamber at 20° C. and a relative at mospheric humidity of 100%. 2 days after the inoculation, the size of the lesions on the leaves is evaluated. 0% means an efficacy which corresponds to that of the untreated control, while an efficacy of 100% means that no disease is observed.

Septoria tritici = test: in vivo preventive Septoria tritici test (wheat); conditions: 15 ppm a.i., evaluated 21 days after inoculation
Experimental: Solvent: 49 parts by weight of N,N-dimethylacetamide Emulsifier: 1 part by weight of alkylaryl polyglycol ether To produce a suitable preparation of active compound, 1 part by weight of active compound or active compound combination is mixed with the stated amounts of solvent and emulsifier, and the concentrate is diluted with water to the desired concentration. To test for preventive activity, young plants are sprayed with the preparation of active compound or active compound combination at the stated rate of application. After the spray coating has been dried, the plants are sprayed with a spore suspension of Septoria tritici. The plants remain for 48 hours in an incubation cabinet at approximately 20° C. and a relative atmospheric humidity of approximately 100% and afterwards for 60 hours at approximately 15° C. in a translucent incubation cabinet at a relative atmospheric humidity of approximately 100%. The plants are placed in the greenhouse at a temperature of approximately 15° C. and a relative atmospheric humidity of approximately 80%. The test is evaluated 21 days after the inoculation. 0% means an efficacy which corresponds to that of the untreated control, while an efficacy of 100% means that no disease is observed.

Alternaria solani = test: in vivo preventive test on Alternaria test (tomatoes); conditions: evaluated 3 days after inoculation
Experimental: (§1) Solvent: 24.5 parts by weight of acetone • 24.5 parts by weight of dimethylacetamide Emulsifier: 1 part by weight of alkylaryl polyglycol ether To produce a suitable preparation of active compound, 1 part by weight of active compound is mixed with the stated amounts of solvent and emulsifier, and the concentrate is diluted with water to the desired concentration. To test for preventive activity, young plants are sprayed with the preparation of active compound at the stated rate of application. After the spray coating has dried on, the plants are inoculated with an aqueous spore suspension of Alternaria solani. The plants are then placed in an incubation cabinet at approximately 20° C. and a relative atmospheric humidity of 100%. The test is evaluated 3 days after the inoculation. 0% means an efficacy which corresponds to that of the untreated control while an efficacy of 100% means that no disease is observed.

Venturia inaequalis = test: in vivo preventive test on Venturia test (apples); conditions: evaluated 10 days after inoculation
Experimental: as §1, with “conidia” for “spore”, “the causal agent of apple scab (Venturia inaequalis) and” for “Alternaria solani. The plants are”, “remain for 1 day” for “placed”, “The plants are then placed in a greenhouse at approximately 21° C. and a relative atmospheric humidity of approximately 90%. The” for “The”, “10” for “3”, “control,” for “control”

SMILES	Efficacy in % found (Botrytis cinerea; 5 ppm a.i.) [%]	Efficacy in % found (Septoria tritici) [%]	Efficacy in % found (Alternaria solani; 1.25 ppm a.i.) [%]	Efficacy in % found (Alternaria solani; 2.5 ppm a.i.) [%]	Efficacy in % found (Venturia inaequalis; 1.25 ppm a.i.) [%]	Efficacy in % found (Botrytis cinerea; 0.5 ppm a.i.) [%]	Efficacy in % found (Venturia inaequalis; 0.125 ppm a.i.) [%]
CC(O)(Cn1cncn1)c1ccc(Oc2ccc(Cl)cc2)cc1C(F)(F)F (centres unmarked) [(B1-1), 2-[4-(4-Chlorophenoxy)-2-(trifluoromethyl)phenyl]-1-(1H-1,2,4-triazol-1-yl)propan-2-ol]	20	0	–	–	–	–	–
CCC(O)(Cn1cncn1)c1ccc(Oc2ccc(Cl)cc2)cc1C(F)(F)F (centres unmarked) [(B1-2), 2-[4-(4-chlorophenoxy)-2-(trifluoromethyl)phenyl]-1-(1H-1,2,4-triazol-1-yl)butan-2-ol]	–	13	8	30	30	–	–
CON(C(=O)c1cn(C)nc1C(F)F)C(C)Cc1c(Cl)cc(Cl)cc1Cl (centres unmarked) [(I-1), 3-(difluoromethyl)-N-methoxy-1-methyl-N-[1-(2,4,6-trichlorophenyl)propan-2-yl]-1H-pyrazole-4-carboxamide]	–	–	–	–	–	8	76
